Assay [1] concerns the target T1, human PDE4B2 (short isoform) (Homo sapiens, UniProt Q07343).
T1 construct: the full length human PDE4B2 short isoform; made in house
The assay can be described thus: PDE assay, [3H]cAMP two-step radio-assay, PDE4B2 short isoform activation. Type of assay: biochemical. Conditions: 100 μM test compound; mean % increase in counts over basal activity.

Assay [2] has as its system m-IMCD3 cells expressing PDE4 long forms. As to the kind of experiment: cAMP levels in PGE2-stimulated 3D m-IMCD3 cell culture media. In kind it is cell-based. Conditions: Mus musculus, mIMCD3, compared to 100% for (DMSO + PGE2), read-out: cAMP level (% of PGE2-stimulated); for activity at 3 µM: 3 μM test compound; for activity at 10 µM: 10 μM test compound. The protocol: HEK 293 and MDCK cells (Public Health England, Cell Culture Collections) were maintained in Dulbecco's Modified Eagle's Medium (DMEM) supplemented with 10% (v/v) fetal bovine serum (FBS) (Seralab), 2 mM L-glutamine and 100 U/mL penicillin streptomycin cocktail (ThermoFisher); termed complete media. Clonal HEK 293 cell lines were maintained in complete media supplemented with 0.6 mg/ml G418 (Enzo Life Sciences). Mouse inner medullary collecting duct (m-IMCD3) cells [American Type Culture Collection (ATCC)] were maintained in media consisting of DMEM/Hams F-12 50/50 Mix (DMEM F12; Corning) supplemented with penicillin streptomycin cocktail (100 U/mL) and FBS (10% v/v) (DMEM F12-10% FBS).
Activation of intracellular PDE4 long forms leads to a reduction of both intracellular cAMP and externalised cAMP (Omar et al., PNAS 116: 13320-13329, 2019). This reduction may be measured in the cell culture media supernatant of 3D cystic cell cultures, such as in the m-IMCD3 cell cyst suppression assay described in Experiment 3.
Following the completion of the m-IMCD3 cell cyst suppression assay (Experiment 3), the cAMP level in the assay media from individual or pooled assay wells was measured using a cAMP ELISA kit (Enzo Life Sciences) or a LANCE Ultra cAMP kit (PerkinElmer) according to the manufacturer's instructions.
For orientation: Cyclic AMP is a second messenger, typically raised through Gs and lowered through Gi signalling.

Assay [3] has as its target T2, human PDE4D5 (long isoform) (Homo sapiens, UniProt Q08499).
T2 construct: Using Full-Length Human PDE4 Isoforms; Long Forms PDE4D5, PDE4C3, PDE4B1 and Short Form PDE4B2; made in house; cytosol fraction (100,000 g supernatant) of the cell lysate, not purified
The assay can be described thus: PDE assay, [3H]cAMP two-step radio-assay, PDE4D5 long isoform activation. Conditions: 100 μM test compound; mean % increase in counts over basal activity. Type of assay: biochemical. Here is the method:
One suitable method of detecting whether or not a compound is capable of serving as an activator of a PDE4 long form is using a two-step radio-assay procedure described in Experiment 1. In summary, the method involves incubating a PDE4 long form with a test small molecule activator, together with [^3H]-labelled cAMP to assess alterations in the breakdown of cAMP to the 5′-adenosine monophosphate (5′-AMP) product. A sample of the reaction mixture from such an incubation is subsequently treated with snake venom 5′-nucleotidase to allow conversion of the nucleotide [^3H]-labelled 5′-AMP to the uncharged nucleoside [^3H]-labelled adenosine, which can be separated and quantified to assess PDE4 activity and the effect of the test compound (Thompson, W. J. and Appleman, M. M. Biochemistry 10: 311-316, 1971, with some modifications as described in: Marchmont, R. J. and Houslay, M. D. Biochem J. 187: 381-92, 1980). […]
The cell lysate containing recombinant PDE4D5 was transferred into a centrifuge tube and placed into an ultracentrifuge (BECKMAN COULTER) and spun at high speed (100,000 g) for 30 minutes at 4° C. The cytosol fraction was then collected and its protein amount determined using a BCA protein assay. […]

For assay [4], the system named is m-IMCD3 cells. The assay can be described thus: Inhibition of PGE2-stimulated in vitro cyst formation in m-IMCD3 cells. In kind it is cell-based, mouse. Conditions: Mus musculus, mIMCD3, 144 h, mean cyst area, 100% for (DMSO + PGE2) and 0% for DMSO control, 6 days of culture; for activity at 3 µM: read-out: % Cyst area after incubation with 3 μM test compound; for activity at 10 µM: read-out: % Cyst area after incubation with 10 μM test compound. In outline: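 Mean cyst area after 6 days, expressed relative to DMSO+PGE2 (100%) and DMSO alone (0%), from z-stack images. Mouse m-IMCD3 spheroids grew in collagen I/Matrigel gels and received PGE2 (100 nM final) with test compound (0.1% DMSO) starting 18–24 h post-plating, media refreshed at day 2 or 3.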

T2 sequence (Q08499 1-745 isoform Q08499-6): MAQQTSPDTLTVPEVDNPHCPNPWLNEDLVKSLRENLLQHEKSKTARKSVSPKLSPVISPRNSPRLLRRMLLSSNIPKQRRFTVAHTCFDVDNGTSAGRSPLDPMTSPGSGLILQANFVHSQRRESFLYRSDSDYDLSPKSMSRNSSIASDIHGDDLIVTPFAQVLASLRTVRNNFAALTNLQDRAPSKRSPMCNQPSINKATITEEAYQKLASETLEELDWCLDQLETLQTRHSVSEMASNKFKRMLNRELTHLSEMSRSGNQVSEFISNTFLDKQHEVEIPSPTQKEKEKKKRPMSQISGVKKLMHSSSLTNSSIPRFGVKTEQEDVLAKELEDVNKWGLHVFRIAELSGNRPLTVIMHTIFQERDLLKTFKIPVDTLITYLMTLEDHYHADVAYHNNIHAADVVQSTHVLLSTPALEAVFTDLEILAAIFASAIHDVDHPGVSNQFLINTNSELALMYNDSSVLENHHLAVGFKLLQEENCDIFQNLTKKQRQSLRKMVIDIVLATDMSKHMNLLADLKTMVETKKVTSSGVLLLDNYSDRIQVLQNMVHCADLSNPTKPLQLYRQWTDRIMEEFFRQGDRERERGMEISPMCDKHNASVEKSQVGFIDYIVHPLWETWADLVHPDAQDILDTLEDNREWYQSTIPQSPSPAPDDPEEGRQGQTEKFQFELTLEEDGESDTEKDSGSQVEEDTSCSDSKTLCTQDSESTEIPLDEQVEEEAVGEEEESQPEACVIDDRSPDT
T1 sequence (Q07343 1-564 isoform Q07343-2): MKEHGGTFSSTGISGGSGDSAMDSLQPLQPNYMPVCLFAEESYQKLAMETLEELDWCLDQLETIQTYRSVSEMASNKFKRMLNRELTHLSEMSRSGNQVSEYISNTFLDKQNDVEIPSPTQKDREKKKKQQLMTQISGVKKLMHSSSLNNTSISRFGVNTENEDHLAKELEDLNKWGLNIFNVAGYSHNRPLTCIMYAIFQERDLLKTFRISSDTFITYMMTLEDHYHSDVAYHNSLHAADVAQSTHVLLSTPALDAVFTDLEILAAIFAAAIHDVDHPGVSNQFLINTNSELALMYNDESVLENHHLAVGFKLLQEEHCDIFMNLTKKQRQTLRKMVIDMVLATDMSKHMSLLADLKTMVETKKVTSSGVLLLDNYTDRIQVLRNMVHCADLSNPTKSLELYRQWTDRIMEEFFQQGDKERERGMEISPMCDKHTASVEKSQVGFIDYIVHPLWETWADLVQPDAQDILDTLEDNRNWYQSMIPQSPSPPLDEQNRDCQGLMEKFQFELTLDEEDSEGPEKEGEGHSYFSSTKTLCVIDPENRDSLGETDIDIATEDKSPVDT

Turning to `O=C(CC1CCCC1)N1CCc2nc(N3CCN4CCC[C@H]4C3)sc2C1` [Example 271, (S)-2-cyclopentyl-1-(2-(hexahydropyrrolo[1,2-a]pyrazin-2(1H)-yl)-6,7-dihydrothiazolo[5,4-c]pyridin-5(4H)-yl)ethan-1-one], the “% increase in PDE4B2 (short isoform) activity at 100 μM” value in assay [1] is recorded as −15%. In addition, the activity at 3 µM stood at 42% in assay [2] and 4% in assay [4]. Moreover, in assay [3], the “% increase in PDE4D5 (long isoform) activity at 100 μM” value was determined as 28%.

As for `CC1(C)CN(C(=O)CC2CCC3(CC2)COC3)Cc2sc(N3C4CCC3CNC4)nc21` [Example 260, 1-(2-(3,8-diazabicyclo[3.2.1]octan-8-yl)-7,7-dimethyl-6,7-dihydrothiazolo[5,4-c]pyridin-5(4H)-yl)-2-(2-oxaspiro[3.5]nonan-7-yl)ethan-1-one], the values for the activity at 3 µM in assay [2] and in assay [4] were 52% and 10%, respectively.

Take `CC(C)(C)CC(=O)N1CCc2nc(N3C4CCC3CNC4)sc2C1` [Example 10, 1-(2-(3,8-diazabicyclo[3.2.1]octan-8-yl)-6,7-dihydrothiazolo[5,4-c]pyridin-5(4H)-yl)-3,3-dimethylbutan-1-one]: the activity at 10 µM was 38% in assay [2] and -3% in assay [4].

Turning to `O=C(CC1CCCC1)N1CCc2nc(N3C[C@H]4C[C@@H]3CN4)sc2C1` [Example 279, 1-(2-((1R,4R)-2,5-diazabicyclo[2.2.1]heptan-2-yl)-6,7-dihydrothiazolo[5,4-c]pyridin-5(4H)-yl)-2-cyclopentylethan-1-one], the activity at 3 µM in assay [2] came out at 27%; in assay [4] it was 19%.

Turning to `CCN1CCN(c2nc3c(s2)CN(C(=O)N[C@H]2CCOc4ccccc42)CC3)CC1` [Example 297, (S)—N-(chroman-4-yl)-2-(4-ethylpiperazin-1-yl)-6,7-dihydrothiazolo[5,4-c]pyridine-5(4H)-carboxamide], the figures for the activity at 3 µM in assay [2] and in assay [4] were 45% and 9%, respectively.

Take `O=S(=O)(NC1CCCC1)N1CCc2nc(N3C4CCC3CNC4)sc2C1` [Example 108, 2-(3,8-diazabicyclo[3.2.1]octan-8-yl)-N-cyclopentyl-6,7-dihydrothiazolo[5,4-c]pyridine-5(4H)-sulfonamide]: the activity at 3 µM in assay [2] came out at 53%. In addition, the “% increase in PDE4D5 (long isoform) activity at 100 μM” value in assay [3] stood at 22%.

Turning to `O=C(c1ccc(C(F)(F)F)nc1)N1CCc2nc(N3C4CCC3CNC4)sc2C1` [Example 241, (2-(3,8-diazabicyclo[3.2.1]octan-8-yl)-6,7-dihydrothiazolo[5,4-c]pyridin-5(4H)-yl)(6-(trifluoromethyl)pyridin-3-yl)methanone], the activity at 3 µM in assay [2] stood at 43%; in assay [4], 4%.

Consider `CCN1CC2CCC(C1)N2c1nc2c(s1)CN(C(=O)COc1ccc(F)cc1)CC2` [Example 302, 1-(2-(3-ethyl-3,8-diazabicyclo[3.2.1]octan-8-yl)-6,7-dihydrothiazolo[5,4-c]pyridin-5(4H)-yl)-2-(4-fluorophenoxy)ethan-1-one], for which the activity at 3 µM in assay [2] came to 48%; in assay [4], 5%.

Turning to `O=C(NC1CCCC1)N1Cc2nc(N3C4CCC3CNC4)sc2C1` [Example 68, 2-(3,8-diazabicyclo[3.2.1]octan-8-yl)-N-cyclopentyl-4,6-dihydro-5H-pyrrolo[3,4-d]thiazole-5-carboxamide], the activity at 3 µM in assay [2] amounted to 19%. Besides, the activity at 10 µM in assay [4] is -4%.

As to `O=C(CC1CCCC1)N1CCc2nc(N3C4CCC3CNC4)sc2C1` [Example 1, 1-(2-(3,8-diazabicyclo[3.2.1]octan-8-yl)-6,7-dihydrothiazolo[5,4-c]pyridin-5(4H)-yl)-2-cyclopentylethan-1-one], the activity at 10 µM in assay [2] is 14%; in assay [4], -5%.

Turning to `O=C(CC1CCCC1)N1CCc2nc(N3C[C@@H]4C[C@H]3CN4)sc2C1` [Example 277, 1-(2-((1S,4S)-2,5-diazabicyclo[2.2.1]heptan-2-yl)-6,7-dihydrothiazolo[5,4-c]pyridin-5(4H)-yl)-2-cyclopentylethan-1-one], the activity at 3 µM in assay [2] was determined as 42%; in assay [4], 6%.

Take `O=C(CC1CCCC1)N1Cc2nc(N3C4CCC3CNC4)sc2C1` [Example 66, 1-(2-(3,8-diazabicyclo[3.2.1]octan-8-yl)-4,6-dihydro-5H-pyrrolo[3,4-d]thiazol-5-yl)-2-cyclopentylethan-1-one]: in assay [2], the activity at 3 µM worked out at 36%. Besides, the activity at 10 µM in assay [4] is -5%.

For the compound `CC(C)N1CC2CCC(C1)N2c1nc2c(s1)CN(C(=O)CC1CCCC1)CC2` [Example 290, 2-cyclopentyl-1-(2-(3-isopropyl-3,8-diazabicyclo[3.2.1]octan-8-yl)-6,7-dihydrothiazolo[5,4-c]pyridin-5(4H)-yl)ethan-1-one], the activity at 3 µM was 35% in assay [2] and -9% in assay [4].
